Test results published in US20130040882A1, “USE OF FIBROBLAST GROWTH FACTOR FRAGMENTS” (NOVARTIS AG, priority 2003, published 2013).
“And” between values parts separate entries of the source, which are not always exact repeats. Identical values can stand only once.

Assay: Salmon calcitonin/PTS893 monkey study: haematology;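 further: haematology parameters were measured in blood collected from a peripheral vein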
Type: in vivo, cynomolgus monkeys (Macaca fascicularis)
Experimental: Animals were fasted overnight before blood collection but had free access to water. Blood samples were taken from a peripheral vein. Standard haematology and clinical chemistry analysis were performed once during pretest and at the end of the treatment period. Blood samples were collected from each animal at the same intervals as described for the clinical chemistry investigations. The serum samples were deep-frozen (approximately −80° C.) until analyses for hormone determination.

## Leu8, Asp10, Lysll, A1a16, G1n18, Thr33, A1a34 human PTH 1-34 [PTS893, Leu8, Asp10, Lysll, A1a16, G1n18, Thr33, A1a34 human PTH 1-34 [hPTH(1-34)]]
females, d7
  Haematology L: 6.29 pg/ml and 5.87 pg/ml
  Haematology M: 0.44 nmol/l
  Haematology MCH: 18.9 ng/ml and 19.0 ng/ml
  Haematology N: 10.8 nmol/l and 5.49 nmol/l
  Haematology PCV: 0.41 mU/l and 0.43 mU/l
  Haematology PLAT: 525 nmol/l and 382 nmol/l
  Haematology RBC: 6.2 nmol/l and 6.4 nmol/l
females, d13
  Haematology E: 0.21 mUI/l and 0.29 mUI/l
  Haematology HB: 11.3
  Haematology L: 5.81 pg/ml and 5.21 pg/ml
  Haematology MCH: 19.3 ng/ml and 19.2 ng/ml
  Haematology MCHC: 28.6 pg/ml and 29.2 pg/ml
  Haematology N: 6.36 nmol/l and 4.18 nmol/l
  Haematology PCV: 0.40 mU/l and 0.39 mU/l
  Haematology PLAT: 496 nmol/l and 309 nmol/l
  Haematology RBC: 5.9 nmol/l
females, d−8 (before dosing)
  Haematology L: 3.92 pg/ml and 4.40 pg/ml
  Haematology M: 0.80 nmol/l and 0.54 nmol/l
  Haematology MCH: 19.3 ng/ml
  Haematology MCHC: 30.6 pg/ml and 30.2 pg/ml
  Haematology N: 5.34 nmol/l and 9.05 nmol/l
  Haematology PCV: 0.44 mU/l and 0.43 mU/l
  Haematology RBC: 6.9 nmol/l and 6.7 nmol/l
males, d7
  Haematology B: 0.02 G/l and 0.03 G/l
  Haematology HB: 11.3 g/dl and 11.9 g/dl
  Haematology L: 5.91 G/l and 5.30 G/l
  Haematology MCH: 17.7 pg and 20.2 pg
  Haematology MCHC: 29.3 g/dl and 30.2 g/dl
  Haematology MCV: 60 fl and 67 fl
  Haematology PCV: 0.38 l/l and 0.40 l/l
  Haematology PLAT: 456 G/l and 589 G/l
  Haematology RBC: 6.4 T/l and 5.9 T/l
  Haematology WBC: 8.4 G/l and 15.0 G/l
males, d13
  Haematology B: 0.04 G/l and 0.03 G/l
  Haematology HB: 11.7 g/dl and 11.8 g/dl
  Haematology L: 5.37 G/l and 4.86 G/l
  Haematology M: 0.27 G/l and 0.46 G/l
  Haematology MCH: 17.3 pg and 20.3 pg
  Haematology MCHC: 27.5 g/dl and 29.2 g/dl
  Haematology MCV: 63 fl and 70 fl
  Haematology PCV: 0.43 l/l and 0.41 l/l
  Haematology PLAT: 330 G/l and 452 G/l
  Haematology RBC: 6.8 T/l and 5.8 T/l
  Haematology WBC: 8.8 G/l and 11.9 G/l
males, d−6 (before dosing)
  Haematology HB: 13.6 g/dl and 13.2 g/dl
  Haematology L: 5.07 G/l and 3.99 G/l
  Haematology MCH: 18.0 pg and 20.4 pg
  Haematology MCHC: 31.5 g/dl and 33.1 g/dl
  Haematology MCV: 57 fl and 62 fl
  Haematology N: 4.45 G/l and 4.80 G/l
  Haematology PCV: 0.43 l/l and 0.40 l/l
  Haematology PLAT: 325 G/l and 459 G/l
  Haematology RBC: 7.6 T/l and 6.5 T/l
  Haematology WBC: 10.4 G/l and 9.1 G/l
